Read-outs that look alike come from different tables or passages of the source.
Experiments:
Assay type in all cases: in vivo
[1] = test system: BROTE: downy brome (Bromus tectorum); experiment: Post-emergent Test III, herbicidal activity in wheat and barley; conditions: for pest or weed control at 35 g/ha / pest or weed control at 70 g/ha / pest or weed control at 140 g/ha: Bromus tectorum, post-emergence, 504 h, read-out: Visual Growth Reduction (%) 21 Days After Application BROTE; for pest or weed control at 35 g/ha: 35 g ai/ha; for pest or weed control at 70 g/ha: 70 g ai/ha; for GR50 BROTE / GR80 BROTE: probit analysis, 21 days after application; for GR50 BROTE: dose for growth reduction of 50 percent; for GR80 BROTE: dose for growth reduction of 80 percent; for pest or weed control at 140 g/ha: 140 g ai/ha
Method in brief: (§1)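 GR20, GR50, GR80 and GR90 come from probit analysis of visual injury scores (0 = none, 100 = complete kill) taken 21 d after treatment. Foliar application was by track sprayer delivering 187 L/ha at five rates, from high down to 1/16×, onto greenhouse plants at the 2–3 leaf stage, with solvent-blank controls.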

[2] = test system: HELAN: sunflower (Helianthus annuus); experiment: Post-emergent Test I herbicidal activity; conditions: post-emergence, 336 h, read-out: Visual Growth Reduction (%) 14 Days After Application, HELAN; for pest or weed control at 4000 g/ha: 4 kg ai/ha
Method: (§2) Post-emergent Test I Seeds test species were obtained from commercial suppliers and planted into a 13 cm diameter-round pot containing soil-less media mix (metro-mix 360®, Sun Gro Horticulture). Postemergence treatments were planted 8-12 days prior to application and cultured in a greenhouse equipped with supplemental light sources to provide a 16 h photoperiod at 24-29° C. All pots were surface irrigated.
(§3) A weighted amount, determined by the highest rate to be tested, of each compound was dissolved in 1.3 mL acetone-DMSO (97:3, v/v) and diluted with 4.1 mL water-isopropanol-crop oil concentrate (78:20:2, v/v/v) containing 0.02% Triton X-155 to obtain concentrated stock solutions. Additional application rates were obtained by serial dilution of the high rate solution into a solution containing appropriate volume of 97:3 v/v mixture of acetone and DMSO and appropriate volume of an aqueous mixture of water, isopropyl alcohol, crop oil concentrate (78:20:2, v/v/v) containing 0.02% Triton X-155.
(§4) Formulated compounds were applied using a DeVilbiss® compressed air sprayer at 2-4 psi. Following treatment, pots were returned to the greenhouse for the duration of the experiment. All pots were sub-irrigated as need to provide optimum growing conditions. All pots were fertilized one time per week by subirrigating with Peters Peat-Lite Special® fertilizer (20-10-20).
(§5) […] All evaluations were made visually on a scale of 0 to 100 where 0 represents no activity and 100 represents complete plant death. Visual assessments of plant injury were made based on growth reduction, discoloration, leaf deformity and necrosis.

[3] = test system: AVEFA: wild oats (Avena fatua); experiment: Post-emergent Test I herbicidal activity; conditions: post-emergence, 336 h, read-out: Visual Growth Reduction (%) 14 Days After Application, AVEFA; for pest or weed control at 4000 g/ha: 4 kg ai/ha
Method: as §2, §3, §4, §5

[4] = test system: ECHCG: barnyardgrass (Echinochloa crus-galli); experiment: Post-emergent Test I herbicidal activity; conditions: post-emergence, 336 h, read-out: Visual Growth Reduction (%) 14 Days After Application, ECHCG; for pest or weed control at 4000 g/ha: 4 kg ai/ha
Method: as §2, §3, §4, §5

[5] = test system: SETFA: giant foxtail (Setaria faberi); experiment: Post-emergent Test I herbicidal activity; conditions: post-emergence, 336 h, read-out: Visual Growth Reduction (%) 14 Days After Application, SETFA; for pest or weed control at 4000 g/ha: 4 kg ai/ha
Method: as §2, §3, §4, §5

[6] = test system: IPOHE: ivyleaf morningglory (Ipomoea hederecea); experiment: Post-emergent Test I herbicidal activity; conditions: post-emergence, 336 h, read-out: Visual Growth Reduction (%) 14 Days After Application, IPOHE; for pest or weed control at 4000 g/ha: 4 kg ai/ha
Method: as §2, §3, §4, §5

[7] = test system: PAPRH: common poppy (Papaver rhoeas); experiment: Post-emergent Test III, herbicidal activity in wheat and barley; conditions: for pest or weed control at 35 g/ha: 35 g ai/ha; for pest or weed control at 70 g/ha: 70 g ai/ha; for GR50 PAPRH / GR80 PAPRH: probit analysis
Method in brief: as §1

[8] = Papaver rhoeas, post-emergence, 504 h, Table 8, post-emergent, 21 d, read-out: Visual Growth Reduction (%) 21 Days After Application PAPRH
[9] = Table 8, dose for 50 percent growth reduction, 21 d
[10] = Table 8, dose for 80 percent growth reduction, 21 d
[11] = Papaver rhoeas, post-emergence, 504 h, read-out: Visual Growth Reduction (%) 21 Days After Application PAPRH

| Compound | pest or weed control at 35 g/ha [1] [%] | pest or weed control at 70 g/ha [1] [%] | GR50 BROTE [1] [g ai/ha] | GR80 BROTE [1] [g ai/ha] | pest or weed control at 35 g/ha [7, 8] [%] | pest or weed control at 70 g/ha [7, 8] [%] | GR50 PAPRH [7, 9] [g ai/ha] | GR80 PAPRH [7, 10] [g ai/ha] | also measured |
| --- | --- | --- | --- | --- | --- | --- | --- | --- | --- |
| COC(=O)c1nc(-c2ccc(Br)c(F)c2F)c(F)c(N)c1Cl [Compound 109, methyl 4-amino-6-(4-bromo-2,3-difluorophenyl)-3-chloro-5-fluoropicolinate] | 75 to 84 | 85 to 94 | 14 | 41 |  |  |  |  | pest or weed control at 4000 g/ha [2]: 95 to 100%; pest or weed control at 4000 g/ha [3]: 75 to 84%; pest or weed control at 4000 g/ha [4]: 95 to 100%; pest or weed control at 4000 g/ha [5]: 95 to 100%; pest or weed control at 4000 g/ha [6]: 85 to 94% |
| COc1c(N)nc(-c2ccc(I)c(F)c2)nc1C(=O)O [Compound 37, 6-Amino-2-(3-fluoro-4-iodophenyl)-5-methoxypyrimidine-4-carboxylic acid] |  |  |  |  | 95 to 100 | 95 to 100 | 1 | 1 |  |
| COC(=O)c1nc(-c2ccc(Br)c(F)c2)nc(N)c1OC [Compound 171, Methyl 6-amino-2-(4-bromo-3-fluorophenyl)-5-methoxypyrimidine-4-carboxylate] |  |  |  |  | 95 to 100 | 95 to 100 | 1 | 1 |  |
| Nc1c(F)c(-c2ccc(Br)cc2)nc(C(=O)O)c1Cl [Compound 20] | 75 to 84 | 85 to 94 | 3 | 87 |  |  |  |  | pest or weed control at 35 g/ha [7, 11]: 95 to 100%; pest or weed control at 70 g/ha [7, 11]: 95 to 100%; pest or weed control at 140 g/ha ([7]; Papaver rhoeas, post-emergence, 504 h, 140 g ai/ha, read-out: Visual Growth Reduction (%) 21 Days After Application PAPRH): 95 to 100%; GR50 PAPRH ([7]; dose for growth reduction of 50 percent, 21 days after application): 1 g ai/ha; GR80 PAPRH ([7]; dose for growth reduction of 80 percent, 21 days after application): 1 g ai/ha; pest or weed control at 140 g/ha [1]: 85 to 94%; pest or weed control at 4000 g/ha [2]: 95 to 100%; pest or weed control at 4000 g/ha [3]: 75 to 84%; pest or weed control at 4000 g/ha [4]: 95 to 100%; pest or weed control at 4000 g/ha [5]: 95 to 100%; pest or weed control at 4000 g/ha [6]: 85 to 94% |
| Nc1cc(-c2ccc(I)cc2F)nc(C(=O)O)c1Cl [Compound 124] |  |  |  |  | 95 to 100 | 95 to 100 | 1 | 1 |  |
| C=Cc1c(C(=O)O)nc(-c2ccc(Cl)c(F)c2)c(F)c1N [Compound 214] | 0 to 29 | 0 to 29 | >140 | >140 |  |  |  |  | pest or weed control at 140 g/ha [1]: 0 to 29%; pest or weed control at 4040 g/ha ([2]; 4.04 kg ai/ha): 95 to 100%; pest or weed control at 4040 g/ha ([3]; 4.04 kg ai/ha): 60 to 74%; pest or weed control at 4040 g/ha ([4]; 4.04 kg ai/ha): 95 to 100%; pest or weed control at 4040 g/ha ([5]; 4.04 kg ai/ha): 85 to 94%; pest or weed control at 4040 g/ha ([6]; 4.04 kg ai/ha): 95 to 100% |
| COC(=O)c1nc(-c2ccc(I)c(F)c2)c(C)c(N)c1Cl [Compound 79, Methyl 4-amino-3-chloro-6-(3-fluoro-4-iodophenyl)-5-methylpicolinate] |  |  |  |  | 95 to 100 | 95 to 100 | 1 | 1 |  |
